The assay concerns P388 leukemia ip, CD2F1 mice, survival T/C. The assay can be described thus: NCI In Vivo Anticancer Drug Screen. Data for tumor model P388 Leukemia (intraperitoneal) in CD2F1 (CDF1) mice. The conditions noted are these: endpoint: median survival time, higher = longer survival. The procedure, abridged: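 Mice carrying the transplanted tumor received test compound or vehicle. Survival was recorded in each group, and the value is the treated-group measurement divided by that of the vehicle-treated control group.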

Setting [1] is: dose: 25.0 mg/kg/injection, schedule: Q01DX009 (ip), vehicle: saline with Tween-80.
Where [2] appears, read: dose: 50.0 mg/kg/injection, schedule: Q01DX009 (ip), vehicle: Klucel (hydroxypropylcellulose) (HPC).
The mark [3] stands for this setting: dose: 100.0 mg/kg/injection, schedule: Q01DX009 (ip), vehicle: Klucel (hydroxypropylcellulose) (HPC).
[4] abbreviates: dose: 200.0 mg/kg/injection, schedule: Q01DX009 (ip), vehicle: Klucel (hydroxypropylcellulose) (HPC).
[5] abbreviates: dose: 50.0 mg/kg/injection, schedule: Q01DX009 (ip), vehicle: saline with Tween-80.
Where [6] appears, read: dose: 100.0 mg/kg/injection, schedule: Q01DX009 (ip), vehicle: saline with Tween-80.
[7] abbreviates: dose: 200.0 mg/kg/injection, schedule: Q01DX009 (ip), vehicle: saline with Tween-80.
[8] abbreviates: dose: 50.0 mg/kg/injection, schedule: Q01DX005 (ip), vehicle: Klucel (hydroxypropylcellulose) (HPC).
The mark [9] stands for this setting: dose: 100.0 mg/kg/injection, schedule: Q01DX005 (ip), vehicle: Klucel (hydroxypropylcellulose) (HPC).
Setting [10] is: dose: 60.0 mg/kg/injection, schedule: Q01DX005 (ip), vehicle: saline with Tween-80.
Setting [11] is: dose: 120.0 mg/kg/injection, schedule: Q01DX005 (ip), vehicle: saline with Tween-80.
Where [12] appears, read: dose: 240.0 mg/kg/injection, schedule: Q01DX005 (ip), vehicle: saline with Tween-80.
Setting [13] is: dose: 60.0 mg/kg/injection, schedule: Q01DX005 (ip), vehicle: Klucel (hydroxypropylcellulose) (HPC).
Setting [14] is: dose: 120.0 mg/kg/injection, schedule: Q01DX005 (ip), vehicle: Klucel (hydroxypropylcellulose) (HPC).
Setting [15] is: dose: 240.0 mg/kg/injection, schedule: Q01DX005 (ip), vehicle: Klucel (hydroxypropylcellulose) (HPC).
Where [16] appears, read: dose: 100.0 mg/kg/injection, schedule: Q04DX003 (ip), vehicle: saline.
The mark [17] stands for this setting: dose: 200.0 mg/kg/injection, schedule: Q04DX003 (ip), vehicle: saline.

Values joined by “and” are separate entries in the source; they are usually repeats but may differ in a detail not shown here. Identical values can stand only once. Toxic doses and inconclusive results are not listed.

As for `Nc1ccc2cc3c(nc2n1)[nH]c1ccccc13`, the T/C was 97 % of control (dose: 1.56 mg/kg/injection, schedule: Q01DX009 (ip), vehicle: saline with Tween-80); 103 % of control (dose: 3.12 mg/kg/injection, schedule: Q01DX009 (ip), vehicle: saline with Tween-80); 100 % of control (dose: 6.25 mg/kg/injection, schedule: Q01DX009 (ip), vehicle: saline with Tween-80); 102 % of control (dose: 12.5 mg/kg/injection, schedule: Q01DX009 (ip), vehicle: saline with Tween-80); 118 % of control under setting [1].

Consider `Cc1nc2c(Br)cc(Br)cc2c(=O)n1CC(=O)NNC(N)=S`, for which the T/C runs as follows: under setting [2], 95 % of control; under setting [3], 104 % of control; under setting [4], 101 % of control.

`O=C(NC1CCCCC1)O/N=C/c1ccc2c(c1)OCO2`: the T/C was 93 % of control under setting [5], 86 % of control under setting [6] and 86 % of control under setting [7].

In the case of `CCS(=O)(=O)c1ncnc2nc[nH]c12`, the T/C is, setting by setting: under setting [8], 100 % of control; under setting [9], 102 % of control; (dose: 200.0 mg/kg/injection, schedule: Q01DX005 (ip), vehicle: Klucel (hydroxypropylcellulose) (HPC)) 100 % of control.

Consider `CCOc1ccc(C(C)c2cc3c(cc2OC)OCO3)cc1` (stereo not given), for which the T/C runs as follows: (dose: 15.0 mg/kg/injection, schedule: Q01DX005 (ip), vehicle: distilled water + Tween-80) 102 % of control; (dose: 25.0 mg/kg/injection, schedule: Q01DX005 (ip), vehicle: distilled water + Tween-80) 100 % of control and 105 % of control (2×); (dose: 31.0 mg/kg/injection, schedule: Q01DX005 (ip), vehicle: distilled water + Tween-80) 118 % of control; (dose: 62.5 mg/kg/injection, schedule: Q01DX005 (ip), vehicle: distilled water + Tween-80) 124 % of control; (dose: 72.0 mg/kg/injection, schedule: Q01DX005 (ip), vehicle: distilled water + Tween-80) 118 % of control and 119 % of control; (dose: 120.0 mg/kg/injection, schedule: Q01DX005 (ip), vehicle: distilled water + Tween-80) 112 % of control and 120 % of control. Under “dose: 125.0 mg/kg/injection, schedule: Q01DX005 (ip), vehicle: distilled water + Tween-80”, the T/C is 154 % of control.

Take `[N-]=[N+]=NC1(N=[N+]=[N-])C(=O)Nc2ccc(Cl)cc2C1=O` (stereo not given): the T/C is 107 % of control under setting [8] and 88 % of control under setting [9].

In the case of `O=C1CC2OCCC3CN4CCC56c7ccccc7N1C5C2C3CC46` (stereo not given), the T/C is 101 % of control (dose: 7.5 mg/kg/injection, schedule: Q01DX005 (ip), vehicle: Klucel (hydroxypropylcellulose) (HPC)); 98 % of control (dose: 15.0 mg/kg/injection, schedule: Q01DX005 (ip), vehicle: Klucel (hydroxypropylcellulose) (HPC)); 98 % of control (dose: 30.0 mg/kg/injection, schedule: Q01DX005 (ip), vehicle: Klucel (hydroxypropylcellulose) (HPC)).

In the case of `Cc1cc(=O)oc2cc(OC(=O)N(C)C)c(Cl)cc12`, the T/C was 100 % of control under setting [5], 101 % of control under setting [6] and 101 % of control under setting [7].

`Cc1ccccc1NC(=O)Oc1ccc(Cl)cc1C(=O)c1ccccc1`: the T/C under setting [10] was 100 % of control, the T/C under setting [11] was 109 % of control and the T/C under setting [12] was 103 % of control.

`CC1(C)OC(=O)C(Cc2c[nH]c3ccccc23)C(=O)O1`: the T/C is 108 % of control under setting [5], 100 % of control under setting [6] and 94 % of control under setting [7].

Turning to `CC1CN(/N=C/c2ccc([N+](=O)[O-])o2)C(=O)O1` (stereo not given), the T/C (dose: 6.25 mg/kg/injection, schedule: Q01DX009 (ip), vehicle: Klucel (hydroxypropylcellulose) (HPC)) was 108 % of control; the T/C (dose: 12.5 mg/kg/injection, schedule: Q01DX009 (ip), vehicle: Klucel (hydroxypropylcellulose) (HPC)) is 106 % of control; the T/C (dose: 25.0 mg/kg/injection, schedule: Q01DX009 (ip), vehicle: Klucel (hydroxypropylcellulose) (HPC)) was 103 % of control; the T/C under setting [2] is 103 % of control.

Regarding `C/C=C(/CN/C(=C\[N+](=O)[O-])c1ccccc1)c1ccccc1`, the T/C is 102 % of control under setting [10], 100 % of control under setting [11] and 95 % of control under setting [12].

On to `NC1=C(Cl)C(=O)C(N)=C(Cl)C1=O`, for which the T/C reads like this: under setting [1], 113 % of control; under setting [2], 100 % of control; under setting [5], 100 % of control; under setting [3], 103 % of control; under setting [6], 100 % of control; under setting [4], 105 % of control. In addition, the T/C reads like this: under setting [7], 94 % of control; (dose: 400.0 mg/kg/injection, schedule: Q01DX009 (ip), vehicle: Klucel (hydroxypropylcellulose) (HPC)) 99 % of control.

As for `CN1CCN(CN2C(=O)NC(c3ccccc3)(c3ccccc3)C2=O)CC1`, the T/C by setting is: under setting [13], 90 % of control; under setting [14], 107 % of control; under setting [15], 98 % of control.

`CN1N=C(C2=NN(C)C(=O)N(C)N2)NN(C)C1=O`: the T/C by setting is: (dose: 12.5 mg/kg/injection, schedule: Q01DX005 (ip), vehicle: Klucel (hydroxypropylcellulose) (HPC)) 101 % of control; (dose: 25.0 mg/kg/injection, schedule: Q01DX005 (ip), vehicle: Klucel (hydroxypropylcellulose) (HPC)) 97 % of control; under setting [8], 104 % of control and 105 % of control.

Take `C/C(=C\C(=O)c1ccccc1)Nc1ccccc1Cl`: the T/C is, setting by setting: (dose: 12.5 mg/kg/injection, schedule: Q01DX009 (ip), vehicle: saline) 100 % of control; (dose: 25.0 mg/kg/injection, schedule: Q01DX009 (ip), vehicle: saline) 102 % of control; (dose: 50.0 mg/kg/injection, schedule: Q01DX009 (ip), vehicle: saline) 89 % of control.

Turning to `COc1cc2c(cc1OC)C(C1c3cc(OC)c(OC)cc3-c3c(OC)c(OC)cc4c3C1N(C)CC4)C1c3c(cc(OC)c(OC)c3-2)CCN1C` (stereo not given), the T/C runs as follows: under setting [16], 99 % of control; under setting [17], 100 % of control; (dose: 400.0 mg/kg/injection, schedule: Q04DX003 (ip), vehicle: saline) 97 % of control.

With `CC1(c2ccco2)NC(=O)N(Cl)C1=O` (stereo not given), the T/C by setting is: under setting [16], 104 % of control; under setting [17], 90 % of control.

`Cc1cc(C)c(CCl)cc1CCl`: the T/C was 113 % of control (dose: 20.0 mg/kg/injection, schedule: Q04DX003 (ip), vehicle: saline with Tween-80); 118 % of control (dose: 40.0 mg/kg/injection, schedule: Q04DX003 (ip), vehicle: saline with Tween-80); 90 % of control (dose: 80.0 mg/kg/injection, schedule: Q04DX003 (ip), vehicle: saline with Tween-80).

Regarding `Cc1ccc(S(=O)(=O)NNC(=O)CCC(=O)NS(C)(=O)=O)cc1`, the T/C by setting is: (dose: 100.0 mg/kg/injection, schedule: Q01DX001 (ip), vehicle: saline with Tween-80) 100 % of control; (dose: 200.0 mg/kg/injection, schedule: Q01DX001 (ip), vehicle: saline with Tween-80) 97 % of control; (dose: 400.0 mg/kg/injection, schedule: Q01DX001 (ip), vehicle: saline with Tween-80) 93 % of control.

For `NC(Cc1ccc(OC2CCCC2)c(N(CCCl)CCCl)c1)C(=O)O` (stereo not given), the T/C (dose: 7.5 mg/kg/injection, schedule: Q04DX003 (ip), vehicle: saline) is 168 % of control; the T/C (dose: 15.0 mg/kg/injection, schedule: Q04DX003 (ip), vehicle: saline) was 168 % of control; the T/C (dose: 30.0 mg/kg/injection, schedule: Q04DX003 (ip), vehicle: saline) was 218 % of control.

As for `CCOC(=O)C(=O)C1Cc2c(C)cc3cnc(OCC)cc3c2C1=O` (stereo not given), the T/C (dose: 12.5 mg/kg/injection, schedule: Q01DX009 (ip), vehicle: distilled water + Tween-80) was 92 % of control; the T/C (dose: 25.0 mg/kg/injection, schedule: Q01DX009 (ip), vehicle: distilled water + Tween-80) is 89 % of control; the T/C (dose: 100.0 mg/kg/injection, schedule: Q01DX009 (ip), vehicle: distilled water + Tween-80) was 92 % of control; the T/C (dose: 200.0 mg/kg/injection, schedule: Q01DX009 (ip), vehicle: distilled water + Tween-80) was 92 % of control.

Regarding `CC(C)(C)/C=C/N=NNc1cc2ccccc2s1`, the T/C reads like this: under setting [13], 100 % of control; under setting [14], 105 % of control; under setting [15], 108 % of control.

(Values after PubChem BioAssay AID330 (DTP/NCI, 2004).)
